Reference: patent US6383543B1, “Process for the extraction of an organic salt from plants, the salt, and other similar salts” (RAD Natural Technologies Ltd., priority 1998, dated 2002)

Experiments:
[1] = Antioxidant effect in water in oil emulsions from soybean oil, Rancimat (AOM) test at 100° C.; details: water in oil emulsion
[2] = Antioxidant effect in oil in water emulsions containing soybean oil, TBA test at 50° C.; details: oil in water emulsion
Description: (a) Oil in water emulsions were prepared from soybean oil (10%), Tween 80 (7%), Span 80 (3%), water (80%) and antioxidant (0.1 or 0.02%).

[3] = Antioxidant effect in bulk oil (soybean oil) at 60° C.
Description: A concentrate was first prepared containing 40% lecithin, 40% oil (e.g. soybean oil), 20% propylene glycol and 4% based on the foregoing mixture of 65% (≡2.6% pure) sodium rosmarinate.

[4] = Comparative efficiency: time the antioxidant continues to inhibit oxidation of linoleic acid; assay type: biochemical; details: time until antioxidant is consumed and rate of change of absorption at 234 nm reverts to control
Description: The method is based on the rate of oxidation of linoleic acid (LA) to its conjugated diene hydroperoxide (Pryor et al., in J. Org. […] A 1% LA aq. emulsion was prepared with 1% Tween 20 and 0.05M sodium phosphate buffer (pH 7.4). A control sample contained 0.025 ml of the LA emulsion+2.87 ml. of the buffer+0.1 ml 0.05M ABAP; a test sample contained 0.05 ml of the LA emulsion+2.7-2.8 ml of the buffer+0.1 ml 0.05M ABAP+0.05-0.1 ml of the sample under test. Absorption at 234 nm is followed for 5 minutes to establish the uninhibited rate of autoxidation. […] The test antioxidant was added and the inhibited reaction was followed until the antioxidant was consumed and the rate of the absorption change at 234 nm reverted to that observed at the outset.

[5] = yes/no; cited from earlier work
[6] = Solubility; assay type: physicochemical; details: for Solubility: lipid or water; for solubility in acetone: b32: essentially 100% acetone
[7] = Antioxidant effect in emulsions containing β-carotene; details: over a 100 hour time period; 0.1%
Description: A model emulsion was then prepared by adding double-distilled water (25 ml) to the residue and diluting to 500 ml with phosphate buffer (pH 7.0). […] […] A control sample contained no antioxidant but instead, 95% ethanol (2 ml).

[8] = Stabilization of ascorbic acid (50% ethanol, 60° C., 24 hours, HPLC); details: 10 mg/ml ascorbic acid, after 60° C.
Description: The experiment was repeated with the addition of 0.035 mg or 0.07 mg sodium rosmarinate.

Row | Compound | Efficiency of 10 μg [4] [h] | Toxicity [5] | Solubility [6] | other results
1 | COc1ccc(O)c(C(C)(C)C)c1 [BHA, butylated hydroxyanisole] | – | – | – | Hours until oxidation ([1]; antioxidant 0.02%): 9.54 h; Days until oxidation ([2]; antioxidant 0.02%): 2 days; Days until oxidation ([3]; concentration 0.02%): 4 days
2 | Cc1cc(C(C)(C)C)c(O)c(C(C)(C)C)c1 [BHT, butylated hydroxytoluene] | 814 | yes | lipid | –
3 | CCCOC(=O)c1cc(O)c(O)c(O)c1 [PG, propyl gallate] | 500 | yes | lipid | –
4 | CC(C)(C)c1cc(O)ccc1O [TBHQ, tertiary-butylhydroxyquinone] | 432 | yes | lipid | –
5 | Cc1c(C)c2c(c(C)c1O)CCC(C)(C(=O)O)O2 (stereo not drawn) [Trolox] | 650 | no | water | –
6 | O=C1O[C@H]([C@@H](O)CO)C(O)=C1O [Vitamin C, ascorbic acid] | – | – | – | Hours until oxidation ([1]; antioxidant 0.1%): 25.20 h; protection of β-carotene [7]: little protection; Days until oxidation ([2]; antioxidant 0.1%): 1 days
7 | O=C(/C=C/c1ccc(O)c(O)c1)OC(Cc1ccc(O)c(O)c1)C(=O)O (stereo not drawn) [rosmarinic acid] | – | – | – | % ascorbic acid ([8]; +0.035 mg additive): 68%; % ascorbic acid ([8]; +0.07 mg additive): 90%; solubility in acetone [6]: acetone-soluble
8 | O=C(/C=C/c1ccc(O)c(O)c1)O[C@H](Cc1ccc(O)c(O)c1)C(=O)O [sodium rosmarinate] | 1413 | no | water | solubility in acetone [6]: virtually acetone-insoluble; Days until oxidation ([3]; concentration 0.005% (as 0.2% of the concentrate)): 7 days; Days until oxidation ([3]; concentration 0.013% (as 0.5% of the concentrate)): 8 days
9 | Vitamin E | 444 | no | lipid | Hours until oxidation ([1]; antioxidant 0.1%): 9.58 h; Days until oxidation ([2]; antioxidant 0.1%): 1 days; Days until oxidation ([3]; concentration 0.06%): 4 days
